Among the data in ChEMBL document CHEMBL3507680, “University of Dundee, Gates Library screen for HepG2 cell viability” are cytotoxicity values, retold here.

This data set can be described thus: Human HepG2 cell viability assay in 384 well format. It counts as toxicity, cell-based. Details: dose 125 nL, time 70.5 hour; concentration not given beside the values. The note with it: HepG2 cells, read-out: Inhibition.
As for `O=C(NC[C@]12COC[C@H]1CN(Cc1cccc(F)c1)C2)c1ccco1`, the cytotoxicity at 70.5 h was -12.4%.

As for `Cc1ccc2c(n1)N(CCN(C)C)CCN(C(=O)c1ccsc1)C2`, the cytotoxicity at 70.5 h was -5.53%.

As to `COC(=O)CCC(=O)N1CCC2(CN(Cc3cccc(Cl)c3)C2)C1`, the cytotoxicity at 70.5 h was 6.9%.

With `O=C(Cc1ccc(F)cc1)N1CCn2c(Cn3cncn3)cnc2C1`, the cytotoxicity at 70.5 h was -1.65%.

Turning to `CCC(O)C1CCN(C(=O)Nc2nc(-c3ccccc3)ns2)CC1` (stereo not given), the cytotoxicity at 70.5 h turned out to be 13.7%.

Take `Cc1ccsc1CCNC(C)C(=O)NC1CCCC1` (stereo not given): the cytotoxicity at 70.5 h was -10.7%.

Take `O=C1CCCN1CCc1noc(-c2ccsc2)n1`: the cytotoxicity at 70.5 h was -7.91%.

For the compound `CN1CCCC2(CCN(c3cccc(C(F)(F)F)n3)C2)C1=O` (stereo not given), the cytotoxicity at 70.5 h is -6.46%.

`CC(C)C(=O)N1CCN(C(=O)c2cc(Cl)no2)[C@H]2CS(=O)(=O)C[C@H]21`: the cytotoxicity at 70.5 h was -2.12%.

For the compound `CC(C)=CCN1CCN(C(=O)c2cc(C)n[nH]2)[C@H]2CS(=O)(=O)C[C@H]21`, the cytotoxicity at 70.5 h came to 0.726%.

Regarding `O=C(CCc1cc2n(n1)CCCNC2)NCCCSC1CCCCC1`, the cytotoxicity at 70.5 h was -8.87%.

As for `O=C(c1cnc(C2CC2)nc1)N1CCC(N2CCC(O)CC2)CC1`, the cytotoxicity at 70.5 h came to 14.2%.

Regarding `O=C(CN1CCC(c2ccccc2)CC1)NCc1cc2n(n1)CCNC2`, the cytotoxicity at 70.5 h is -10.6%.

As to `CSc1cccc(CN2CCC(CCC(=O)Nc3ccccc3)CC2)c1`, the cytotoxicity at 70.5 h was -8.78%.

In the case of `Cn1ccc(NC(=O)CN2C[C@H]3CC[C@@H]2CN(Cc2ccccn2)C3)n1`, the cytotoxicity at 70.5 h was -3.7%.

As for `CCCc1nnc2sc(C3CCN(C4CCN(C)CC4)CC3)nn12`, the cytotoxicity at 70.5 h was -12.7%.

Turning to `CN(C)C(C(=O)NCCSc1ncn[nH]1)c1cccc(F)c1` (stereo not given), the cytotoxicity at 70.5 h was found to be 28.8%.

For the compound `CN1CSC[C@H]1C(=O)N1CCN(Cc2cccc(F)c2)CC1`, the cytotoxicity at 70.5 h was determined as 8.84%.

For the compound `CN(C)C(=O)N1C[C@@H]2CC[C@H](C1)N(C(=O)c1c(Cl)cccc1Cl)C2`, the cytotoxicity at 70.5 h is -13.7%.

On to `CC(=O)NCC(=O)N1CCCC2(CCC(=O)N(CCc3c[nH]cn3)C2)C1` (stereo not given), for which the cytotoxicity at 70.5 h amounted to 10.1%.

`CC1(C)[C@H]2CC=C(CN3CCCn4nc(CCC(=O)O)cc4C3)[C@@H]1C2`: the cytotoxicity at 70.5 h was -14.3%.

As for `Cc1ncsc1CCN(C)C(=O)C(c1cccnc1)N1CCOCC1` (stereo not given), the cytotoxicity at 70.5 h is -5.13%.

As for `CCCN1CCN(Cc2nc3ccccc3[nH]2)[C@H]2CS(=O)(=O)C[C@H]21`, the cytotoxicity at 70.5 h is -3.06%.

`CCn1ccnc1CN(C)Cc1nc(Cc2ccccc2Cl)no1`: the cytotoxicity at 70.5 h came to 0.631%.

On to `Cn1c(Cn2ccnc2)nnc1C1CCN(C(=O)c2cccnc2)CC1`, for which the cytotoxicity at 70.5 h was -10.4%.

For the compound `CCC(CO)N(Cc1ccccn1)Cc1c[nH]nc1-c1ccc(F)cc1` (stereo not given), the cytotoxicity at 70.5 h is -6.02%.

With `O=C(Cn1cccn1)N1CCC(Cn2cc(-c3ccsc3)nn2)CC1`, the cytotoxicity at 70.5 h is -10.6%.

Regarding `CCc1nc(CCn2ccnc2-c2nccn2C)no1`, the cytotoxicity at 70.5 h was -7.8%.

Regarding `OCC1CCCN(c2ncnc3c2Cc2ccccc2OC3)C1` (stereo not given), the cytotoxicity at 70.5 h was -5.22%.

In the case of `Cc1ncsc1CCC(=O)NC1CCN(c2ncccc2C#N)CC1`, the cytotoxicity at 70.5 h is -13.1%.

As to `COCc1noc(-c2ccc(N3CCCCC3COC)nc2)n1` (stereo not given), the cytotoxicity at 70.5 h was -11.8%.

As for `FC(F)(F)c1cccc(OC2CCN(Cc3ccccn3)CC2)c1`, the cytotoxicity at 70.5 h is -0.484%.

With `CCc1ncc(-c2cn(CCSc3ncn[nH]3)nn2)cn1`, the cytotoxicity at 70.5 h was -11.1%.

For the compound `COc1ccc(NC(=O)c2cccc(CN3CCCC3C)c2)cc1OC` (stereo not given), the cytotoxicity at 70.5 h was -2.34%.

Consider `COc1ccccc1C(=O)C1CCCN(c2cc(C#N)ccn2)C1` (stereo not given), for which the cytotoxicity at 70.5 h is -1.63%.

`COCc1noc(-c2ccc(N3CCCC3c3nccs3)nc2)n1` (stereo not given): the cytotoxicity at 70.5 h was determined as 12%.

On to `CCCOCC(=O)N1CCC2(CC1)c1nc[nH]c1CCN2S(C)(=O)=O`, for which the cytotoxicity at 70.5 h is -5.48%.

For the compound `O=C(CN1CCN(c2ncnc3c2CCNCC3)CC1)N1CCCCC1`, the cytotoxicity at 70.5 h is -5.29%.

Consider `Cc1cc(-c2ccc(C(C)N3CCOCC3)cc2)cnc1N` (stereo not given), for which the cytotoxicity at 70.5 h is -4.56%.

In the case of `CCc1n[nH]c(SCC(=O)N2CCc3[nH]nc(C4CCC4)c3C2)n1`, the cytotoxicity at 70.5 h is -0.161%.

Regarding `COc1ccc(CCC2CCCN(C(=O)CCc3cc(O)no3)C2)cc1` (stereo not given), the cytotoxicity at 70.5 h was -4.3%.

Regarding `CC(=O)N[C@@H]1Cc2ccccc2[C@H]1Nc1cc(C2CC2)ncn1`, the cytotoxicity at 70.5 h is 7.02%.

For the compound `CCNc1ncc(C(=O)N2CCc3c(nc(C)nc3N(C)C)C2)cn1`, the cytotoxicity at 70.5 h was 25.4%.

In the case of `CS(=O)(=O)NCc1cc2n(n1)CCCN(Cc1ccc(Cl)s1)C2`, the cytotoxicity at 70.5 h is -9.1%.

In the case of `CN(Cc1ccc(-n2cccn2)cc1)Cc1ncc[nH]1`, the cytotoxicity at 70.5 h is -9.75%.

Regarding `CC(C)CCn1cc(C(C(=O)O)N2CCSCC2)cn1` (stereo not given), the cytotoxicity at 70.5 h was -12.4%.

Consider `COc1cccc(OCC2CCCN(C(=O)CCc3cc(O)no3)C2)c1` (stereo not given), for which the cytotoxicity at 70.5 h is -21.1%.

Turning to `CC(C)c1cc(NCC2(N3CCOCC3)CCCCC2)ncn1`, the cytotoxicity at 70.5 h was 45.2%.

As to `CC(C)(C)c1cc(=O)[nH]c(-c2ccccc2CN2CCC[C@@H](O)C2)n1`, the cytotoxicity at 70.5 h was -2.12%.

As for `COCCc1noc(-c2cn(Cc3ccc(OC)cc3)nn2)n1`, the cytotoxicity at 70.5 h turned out to be 7.6%.

For `CCCc1cc(C(=O)N2Cc3ccccc3C2)[nH]n1`, the cytotoxicity at 70.5 h was found to be 6.06%.

For `O=C1CC(C(=O)O)C2(CCN(C(=O)Nc3ccccc3Cl)CC2)N1` (stereo not given), the cytotoxicity at 70.5 h was -2.72%.

Take `O=C(Cn1ccc2ncccc2c1=O)N1CCSCC1`: the cytotoxicity at 70.5 h is 29.2%.

As for `CN(C)CC1(O)CCCN(C(=O)CCc2nc3cccnc3n2C)C1` (stereo not given), the cytotoxicity at 70.5 h is -9.56%.

As for `c1cncc(NCCNC2CCCNC2)c1` (stereo not given), the cytotoxicity at 70.5 h is 2.18%.

In the case of `COCCn1cnnc1CCn1ccnc1-c1ccccc1Cl`, the cytotoxicity at 70.5 h amounted to 5.9%.

Consider `O=C1NCCc2c1sc1ccc(C(=O)N3CC[C@H](CO)[C@H](O)C3)cc21`, for which the cytotoxicity at 70.5 h is -2.24%.

`CN1CCC(N(CCc2ccccc2)C(=O)c2ccoc2)CC1`: the cytotoxicity at 70.5 h was -7.47%.

With `COc1cccc(C(=O)N2CCN(C(=O)CCCc3cn[nH]c3)CC2)c1`, the cytotoxicity at 70.5 h is -2.77%.

As for `Cc1nc(O)cc(CN2CC=C(c3cnn(C(C)(C)C)c3)CC2)n1`, the cytotoxicity at 70.5 h was -10.5%.

Regarding `CCC(C)N(Cc1cccnc1)Cc1cc2c(cc1OC)OCO2` (stereo not given), the cytotoxicity at 70.5 h was 0.778%.

In the case of `O=C(c1cccc(S(=O)(=O)NC[C@@H]2C[C@H](F)CN2)c1)N1CCCCC1`, the cytotoxicity at 70.5 h worked out at 4.39%.

For `O=C(c1ccc2c(c1)CCC2)N1CCN(c2ccc(Cl)cn2)CC1`, the cytotoxicity at 70.5 h is 6.01%.

For the compound `Cc1nn(CCO)c(C)c1CN1CCN(C2CCCCC2)C(=O)C1`, the cytotoxicity at 70.5 h amounted to 0.129%.

As to `OC[C@@H]1CCCN1c1ccc(-c2nc(COc3ccccc3)no2)cn1`, the cytotoxicity at 70.5 h was 1.55%.

As for `CCC(C)N(Cc1ccsc1)C(=O)c1ccc2[nH]nnc2c1` (stereo not given), the cytotoxicity at 70.5 h came to 24.9%.

Consider `O=C(c1ccncc1F)N1CCCC(c2nccn2CC2CCC2)C1` (stereo not given), for which the cytotoxicity at 70.5 h is -21.7%.

In the case of `CC(C)c1noc(-c2ccc(NCCCN3CCCC(O)C3)nc2)n1` (stereo not given), the cytotoxicity at 70.5 h is -6.37%.

Turning to `O=C(NCCn1ccnc1-c1cc2n(n1)CCNC2)c1ccncc1`, the cytotoxicity at 70.5 h is -5.81%.

For `O=C(c1cn2cc(Cl)ccc2n1)N1CCC(CCn2cccn2)CC1`, the cytotoxicity at 70.5 h is 19.9%.

Take `CN(C)C(C(=O)N1CCN(CC(F)(F)F)CC1)c1ccccc1F` (stereo not given): the cytotoxicity at 70.5 h was -1.96%.

Take `Cc1cc(C)n(-c2ccc(C(=O)NCC(CO)Cc3cccs3)cc2)n1` (stereo not given): the cytotoxicity at 70.5 h was -8%.

For the compound `Cc1cc(C(=O)N2CCc3ncnc(N4CCSCC4)c3CC2)[nH]n1`, the cytotoxicity at 70.5 h is -5.82%.

For the compound `COc1nc2ccccc2cc1C1CC(=O)Nc2n[nH]c(C3CCC3)c21` (stereo not given), the cytotoxicity at 70.5 h turned out to be 4.02%.

Regarding `CNCCN1C(=O)CC[C@H]2CN(c3cnc4ccccc4n3)CC[C@H]21`, the cytotoxicity at 70.5 h is -2.89%.

For the compound `Cc1ccc2nc(C)c(C)c(C(=O)N[C@H]3COC[C@@H]3N3CCCC3)c2c1`, the cytotoxicity at 70.5 h was -3.96%.

For the compound `COc1ncccc1C(=O)N1CCC(c2nc3c(C)cccc3[nH]2)CC1`, the cytotoxicity at 70.5 h was -6.55%.

For the compound `CCN(CCn1cccn1)Cc1nc(-c2ccoc2)oc1C`, the cytotoxicity at 70.5 h turned out to be 14%.

`Cc1cc(C2CCCN2Cc2cccc(C(=O)Nc3nccs3)c2)no1` (stereo not given): the cytotoxicity at 70.5 h is -14.5%.

With `Cc1nc(CN2CC[C@@H]3[C@@H](CCC(=O)N3CCc3c[nH]cn3)C2)co1`, the cytotoxicity at 70.5 h stood at 13%.

Take `Nc1nc(O)cc(N2CCC(c3cc(Cc4ccccc4)n[nH]3)CC2)n1`: the cytotoxicity at 70.5 h is -3.99%.

Turning to `CC(=O)Nc1ccc(CN2CCc3[nH]cnc3C2c2nccn2C)cc1` (stereo not given), the cytotoxicity at 70.5 h is -3.14%.

`CCn1ncc(CNC(=O)c2cn(CCC3CCCCN3)nn2)c1C` (stereo not given): the cytotoxicity at 70.5 h was -6.28%.

In the case of `CCCc1cc(CNC(=O)Cc2cc(C)no2)on1`, the cytotoxicity at 70.5 h stood at 1.19%.

Regarding `CCc1noc(CN(CC)Cc2cc3cc(C)ccc3[nH]c2=O)n1`, the cytotoxicity at 70.5 h was -10.7%.

For the compound `CN1CCN(c2cnn(CCn3cccn3)c(=O)c2)CC1`, the cytotoxicity at 70.5 h is -3.04%.

Turning to `Cc1ccccc1C(C(=O)NCCN1CCC(CO)CC1)N(C)C` (stereo not given), the cytotoxicity at 70.5 h was -3%.

`COCCC(=O)N1CCC2(CCN(Cc3ccc(C)cc3)CC2)C1`: the cytotoxicity at 70.5 h was -7.89%.

As for `O=C(NC1CCC1)[C@@H]1C[C@@H]2CCN(CCc3ccccc3)C[C@H]2O1`, the cytotoxicity at 70.5 h is -8.97%.

Consider `O=C1N(c2ccsc2)CCC12CCCN(CC1CC1)C2` (stereo not given), for which the cytotoxicity at 70.5 h is -4.66%.

Take `CNC(=O)[C@H]1C[C@@H]2CCN(CCc3ccccc3)C[C@@H]2O1`: the cytotoxicity at 70.5 h is -4.11%.

Take `O=C(NC[C@]12COC[C@H]1CN(CC1CCOCC1)C2)c1ccco1`: the cytotoxicity at 70.5 h was -3.33%.

Turning to `Cc1ccsc1CN1C[C@@H]2COC[C@]2(CNC(=O)c2ccco2)C1`, the cytotoxicity at 70.5 h was -6.31%.

With `O=C(c1ccsc1)N1CCC2(CC1)COCCN(Cc1ccncc1)C2`, the cytotoxicity at 70.5 h is -7.46%.

With `O=C(NC[C@]12COC[C@H]1CN(Cc1ccncc1)C2)c1ccno1`, the cytotoxicity at 70.5 h is -7.21%.
